Reference: publication PMC11328599, “Crystal structure of dihydroneopterin aldolase from Mycobacterium tuberculosis associated with 8-mercaptoguanine, and development of novel S8-functionalized analogues as inhibitors: Synthesis, enzyme inhibition, in vitro toxicity and antitubercular activity” (Journal of Enzyme Inhibition and Medicinal Chemistry, 2024)
≈ marks a conversion by molar mass, not a printed value. Where “and” joins values, the source holds several entries; their conditions need not be identical. Identical values can stand only once. Like-named read-outs stand apart in the source and are kept apart here.

Assays:
[1] = test system: M. tuberculosis H37Rv strain; test: Minimum inhibitory concentration, resazurin reduction microplate assay (REMA); format: cell-based; settings: Mycobacterium tuberculosis
[2] = target: T1, MtFolB (Mycobacterium tuberculosis, UniProt P9WNC5); test: Mode of inhibition and inhibition constants on MtFolB aldolase activity (Lineweaver-Burk); format: biochemical; settings: towards substrate DHNP; for Ki: read-out: Kis DHNP
T1 construct: made in house
T1 sequence (P9WNC5 whole entry): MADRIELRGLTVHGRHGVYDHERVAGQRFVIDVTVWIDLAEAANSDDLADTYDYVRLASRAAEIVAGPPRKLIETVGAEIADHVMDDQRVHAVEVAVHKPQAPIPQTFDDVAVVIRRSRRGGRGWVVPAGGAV
Protocol: The mode of inhibition and the inhibition constants (Ki and/or Kis) were defined for the compounds 3a-e. There are three categories for the inhibition mode: competitive, where inhibitor and substrate binding are mutually exclusive; non-competitive, if the inhibitor can bind to both the free enzyme and the enzyme-substrate complex; or uncompetitive, when the inhibitor binds only to the enzyme-substrate complex. For each compound, 3 curves were performed with fixed-varied inhibitor concentration and varying the DHNP concentration until saturation of enzyme activity. For the compound 3a the fixed-varied concentrations were 0.2 μM, 0.5 μM and 0.8 μM (varying DHNP 0.5 – 10 μM). For the compound 3b the fixed-varied concentrations were 0.1 µM (varying DHNP 0.2 – 10 µM); 0.3 μM (varying DHNP 0.5 – 10 μM) and 0.6 μM (varying DHNP 0.5 – 15 μM). For the compound 3c the fixed-varied concentrations were 0.3 μM, 0.6 μM and 0.9 μM (varying DHNP 0.5 – 10 μM). For the compound 3d the fixed-varied concentrations were 0.5 μM, 1 μM (varying DHNP 0.5 – 10 μM) and 2.5 μM (varying DHNP 1 – 10 μM). For the compound 3e the fixed-varied concentrations were 1.4 µM, 3.5 µM (varying DHNP 0.5 – 10 µM) and 7 µM (varying DHNP 1 – 10 µM). Furthermore, we performed a control experiment with 10% DMSO in the absence of inhibitors varying the DHNP concentration until saturation (0.2 – 10 µM). The straight-line patterns obtained were used to define the mode of inhibition. The diagnostic signature of a competitive inhibitor is a set of lines that intersect on the y-axis, for non-competitive inhibitors the pattern of intersection is to the left of the y-axis and for uncompetitive inhibitors the lines are parallel to each other. The inhibition constants were calculated using Equation (2) for competitive inhibitors or Equation (3) for non-competitive inhibitors, where [I] is the inhibitor concentration, [S] is the substrate concentration, KM is the Michaelis-Menten constant, Vmax is the maximum velocity, Kis is the inhibition constant for the enzyme-substrate complex, and Kii is the inhibition constant for the enzyme-substrate-inhibitor complex. (2) 1/v0=KM/Vmax(1+[I]/Kis)1/[S]+1/Vmax (3) 1/v0=KM/Vmax(1+[I]/Kis)1/[S]+1/Vmax(1+[I]/Kii)

[3] = test system: HepG2 cells; test: in vitro; format: cell-based; settings: for % of cell viability ± SEM: human, 72 h
Protocol: (§1) Cell viability assays in the presence of compound 3e were performed in both Vero (BCRJ code 0245) and HepG2 (BCRJ code 0291) cells using MTT (3-[4,5-dimethylthiazol-2-yl]-2,5 diphenyl tetrazolium bromide)[21] and neutral red uptake (NRU)[22] methods. Both cell lines were grown in Dulbecco’s Modified Eagle Medium (DMEM-Gibco, Grand Island, NY, USA) supplemented with 10% or 20% inactivated foetal bovine serum (FBS- Invitrogen) for Vero and HepG2, respectively, 1% penicillin (Gibco) and streptomycin (Gibco), and 0.1% fungizone (Gibco). The experiments were performed in 96-well plates. First, cells were seeded at 6 x 10^3 (Vero) or 7 x 10^3/well (HepG2) and incubated overnight at 37 °C under a 5% CO2 atmosphere. Then, the medium was removed and replaced with fresh medium containing the compound at a final concentration of 75 µM, 87.5 µM, or 100 µM with DMSO at a final concentration of 0.8%. Cells were incubated during 72 h at 37 °C under a 5% CO2 atmosphere. For the MTT assay, the medium was removed after the incubation and replaced with MTT reagent (Sigma-Aldrich) at 5 mg/mL, and then the cells were incubated for 4 h. DMSO was used to solubilise formazan crystals. The absorbance was measured at 570 nm using microplate reader (EZ Read 400 microplate reader, Biochrom, Cambridge, UK). Precipitated purple formazan crystals were directly proportional to the number of live cells with mitochondrial metabolism. For the NRU assay, after the incubation with the compound, the media was removed and 200 µL of neutral red dye solution (Sigma-Aldrich) at 25 µg/mL prepared in serum-free medium was added to each well. The plate was then incubated for 3 h at 37 °C under 5% CO2. After this time, cells were washed twice with PBS, followed by incubation with 100 μL of a desorb solution (ethanol/acetic acid/water, […]) for 30 min, with gentle shaking to extract neutral red dye from the viable cells. The absorbance was measured at 562 nm using microplate reader (EZ Read 400 microplate reader, Biochrom, Cambridge, UK). Treated control wells (0.8% DMSO) were used as references for maximum cell viability (100%). Three independent experiments were performed, and the data were expressed as the means of cell viability ± the standard error of the means. Statistical analysis was performed using one-way ANOVA analysis of variance followed by Dunett’s Multiple Comparison Test post-test using GraphPad Prism 9.0.0 (San Diego, CA, USA).

[4] = in vitro; format: cell-based; settings: % of cell viability ± SEM
Protocol: as §1

[5] = test system: Vero cells; test: in vitro; format: cell-based; settings: for % of cell viability ± SEM: African green monkey, 72 h
Protocol: as §1

[6] = physchem; format: physicochemical; settings: 25 °C, thermodynamic from solid
Protocol: The solubility of the compound 3e was evaluated under three pH conditions: pH 1.2 (HCl 0.1 M); pH 7.4 (PBS 1X); and pH 9.1 (NH4HCO3 0.1 M). For this assay, we prepared a suspension of compound 3e at 1 mg/mL in each buffer solution by vortexing it for 1 min. Then, the suspension was kept under constant shaking for 4 h at 25 °C. Subsequently, the suspension was centrifuged at 13,000 rpm for 15 min at 25 °C. The supernatant was quantified by ultra-high-performance liquid chromatography (UHPLC) using single-point calibration of a known concentration of the compound in DMSO. The experiment was performed in triplicate.

[7] = REMA, 7 days + 48 h resazurin, read-out: MIC
[8] = converted from µg/mL, read-out: MIC (equivalent)

Row | Structure (SMILES) | melting point | Inhibition mode [2] | Ki [2] | other results
1 | NNC(=O)c1ccncc1 [INH, Isoniazid] | – | – | – | MIC [1, 7]: 0.31 µg/mL; MIC [1, 8]: 2.3 µM
2 | Nc1nc2[nH]c(SCC(=O)Nc3ccc4c(c3)CCCC4)nc2c(=O)[nH]1 [Compound 3d, 2-((2-amino-6-oxo-6,9-dihydro-1H-purin-8-yl)thio)-N-(5,6,7,8-tetrahydronaphthalen-2-yl)acetamide] | 294 to 295 °C (dec.) | Competitive | 200 ± 50 nM | –
3 | Nc1nc2[nH]c(SCC(=O)Nc3ccc(C(=O)N4CCCC4)cc3)nc2c(=O)[nH]1 [Compound 3c, 2-((2-amino-6-oxo-6,9-dihydro-1H-purin-8-yl)thio)-N-(4-(pyrrolidine-1-carbonyl)phenyl)acetamide] | 237 to 239 °C (dec.) | Non-competitive | 300 ± 200 nM | Kii DHNP [2]: 1.5 µM and 1.5 ± 0.9 µM
4 | CN(C(=O)CSc1nc2c(=O)[nH]c(N)nc2[nH]1)C1CCCCC1 [Compound 3j, 2-((2-amino-6-oxo-6,9-dihydro-1H-purin-8-yl)thio)-N-cyclohexyl-N-methylacetamide] | 272 to 274 °C (dec.) | – | – | –
5 | Nc1nc2[nH]c(SCC(=O)NC3CCCCCC3)nc2c(=O)[nH]1 [Compound 3f, 2-((2-amino-6-oxo-6,9-dihydro-1H-purin-8-yl)thio)-N-cycloheptylacetamide] | 292 to 294 °C (dec.) | – | – | –
6 | Nc1nc2[nH]c(SCC(=O)Nc3ccc(N4CCOCC4)cc3)nc2c(=O)[nH]1 [Compound 3b, 2-((2-amino-6-oxo-6,9-dihydro-1H-purin-8-yl)thio)-N-(4-morpholinophenyl)acetamide] | 326 to 328 °C (dec.) | Competitive | 300 ± 80 nM | –
7 | C[C@@H]1[C@H](NC(=O)CSc2nc3c(=O)[nH]c(N)nc3[nH]2)C[C@H]2C[C@@H]1C2(C)C [Compound 3k, 2-((2-amino-6-oxo-6,9-dihydro-1H-purin-8-yl)thio)-N-((1S,2S,3R,5R)-2,6,6-trimethylbicyclo [3.1.1]heptan-3-yl)acetamide] | 289 to 291 °C (dec.) | – | – | –
8 | Nc1nc2[nH]c(SCC(=O)Nc3ccc(N4CCCCC4)cc3)nc2c(=O)[nH]1 [Compound 3a, 2-((2-amino-6-oxo-6,9-dihydro-1H-purin-8-yl)thio)-N-(4-(piperidin-1-yl)phenyl)acetamide] | 258 to 260 °C (dec.) | Competitive | 400 ± 100 nM | –
9 | C[C@@H](NC(=O)CSc1nc2c(=O)[nH]c(N)nc2[nH]1)C1CCCCC1 [Compound 3n, (R)-2-((2-amino-6-oxo-6,9-dihydro-1H-purin-8-yl)thio)-N-(1-cyclohexylethyl)acetamide] | 289 to 291 °C (dec.) | – | – | –
10 | CC1CCC(NC(=O)CSc2nc3c(=O)[nH]c(N)nc3[nH]2)CC1 (centres unmarked) [Compound 3g, 2-((2-amino-6-oxo-6,9-dihydro-1H-purin-8-yl)thio)-N-(4-methylcyclohexyl)acetamide] | 282 to 284 °C (dec.) | – | – | –
11 | Nc1nc2[nH]c(SCC(=O)NC3CCC3)nc2c(=O)[nH]1 [Compound 3i, 2-((2-amino-6-oxo-6,9-dihydro-1H-purin-8-yl)thio)-N-cyclobutylacetamide] | 285 to 287 °C (dec.) | – | – | –
12 | Nc1nc2[nH]c(SCC(=O)NC3CCCC3)nc2c(=O)[nH]1 [Compound 3h, 2-((2-amino-6-oxo-6,9-dihydro-1H-purin-8-yl)thio)-N-cyclopentylacetamide] | 280 to 282 °C (dec.) | – | – | –
13 | Nc1nc2[nH]c(SCC(=O)NCC3CCCCC3)nc2c(=O)[nH]1 [Compound 3l, 2-((2-amino-6-oxo-6,9-dihydro-1H-purin-8-yl)thio)-N-(cyclohexylmethyl)acetamide] | 262 to 263 °C (dec.) | – | – | –
14 | Nc1nc2[nH]c(SCC(=O)Nc3cccc4c3CCCC4)nc2c(=O)[nH]1 [Compound 3e, 2-((2-amino-6-oxo-6,9-dihydro-1H-purin-8-yl)thio)-N-(5,6,7,8-tetrahydronaphthalen-1-yl)acetamide] | 260 to 261 °C (dec.) | Non-competitive | 1400 ± 300 nM | toxicity [3]: no apparent toxicity; % of cell viability ± SEM ([3]; 75 µM): 100 ± 6%; % of cell viability ± SEM ([3]; 87.5 µM): 111 ± 3%; % of cell viability ± SEM ([3]; 100 µM): 104 ± 2%; viability at 72 h, 75 µM ([4]; African green monkey): 115 ± 2%; viability at 72 h, 87.5 µM ([4]; African green monkey): 94 ± 10%; viability at 72 h, 100 µM ([4]; African green monkey): 94 ± 3%; viability at 72 h, 75 µM ([4]; human): 108 ± 3%; viability at 72 h, 87.5 µM ([4]; human): 97 ± 2%; viability at 72 h, 100 µM ([4]; human): 96 ± 2%; toxicity [5]: no apparent toxicity; % of cell viability ± SEM ([5]; 75 µM): 96 ± 1%; % of cell viability ± SEM ([5]; 87.5 µM): 102 ± 3%; % of cell viability ± SEM ([5]; 100 µM): 96 ± 2%; Kii DHNP [2]: 6.3 µM and 6.3 ± 1.2 µM; solubility at 4 h ([6]; pH 1.2, simulated gastric fluid): 612 µM (≈ 227 µg/mL); solubility at 4 h ([6]; pH 7.4, aqueous buffer): 1.1 µM (≈ 0.407 µg/mL); solubility at 4 h ([6]; pH 9.1, aqueous buffer): 37.6 µM (≈ 13.9 µg/mL); MIC [1, 7]: 40 µg/mL; MIC [1, 8]: 108 µM
15 | C[C@H](NC(=O)CSc1nc2c(=O)[nH]c(N)nc2[nH]1)C1CCCCC1 [Compound 3m, (S)-2-((2-amino-6-oxo-6,9-dihydro-1H-purin-8-yl)thio)-N-(1-cyclohexylethyl)acetamide] | 294 to 296 °C (dec.) | – | – | –
